Reference: patent publication US7122530B2, “24-hydroxyvitamin D, analogs and uses thereof” (Genzyme Corporation, priority 1998, dated 2006)

What was measured:
[1] = system: dermatitis (contact and ectopic) patients; test: Double blind study of oral 24-OH-D2 formulation in dermatitis (contact and ectopic); format: in vivo, human; settings: daily oral 10.0 to 20.0 μg, four to six weeks
Description: An oral dosage formulation containing 24-OH-D2 is evaluated in a double blind study for therapeutic efficacy of the formulation in the treatment of dermatitis (contact and ectopic). The formulation evaluated contains 10.0 to 20.0 μg of 24-OH-D2. […] The patients are treated in an outpatient clinic and are divided into an experimental and control population. They are instructed to take the medication once a day, in the morning before breakfast.
In each patient (experimental and control) an area of the skin containing a lesion is selected which is ordinarily covered by clothing, and the patients are instructed not to expose the skin area selected for study to sunlight. The area of the lesion is estimated and recorded, and the lesion(s) is photographed. Relevant details of the photographic procedure are recorded so as to be reproduced when the lesions are next photographed (distance, aperture, angle, background, etc.).
Evaluations of erythema, scaling, and thickness are conducted at weekly intervals by a physician. The final evaluation is usually carried out at the end of four to six weeks of treatment.

[2] = system: cytotoxic thymus-derived lymphocyte (CTL) activity; test: Immunological testing: CTL activity in mice immunized with allogeneic P815 tumor cells; format: in vivo, C57BL/6 mice; settings: both tests: 5 micrograms daily i.p., or 10 micrograms i.p. twice; assay 10 days after immunization
Description: Female C57BL/6 mice are used between the ages of 9–12 weeks. Mice are given food and water ad libitum and are kept in a 12-hour light and 12-hour dark cycle.
A known balanced salt solution (BSS) is prepared and supplemented to 0.01 molar with HEPES buffer.
The test compound, 24-OH-D2, is dissolved in dimethylsulfoxide at final concentrations of 0.2 or 0.4 mg per ml. When working with vitamin D compounds, conditions of reduced lighting were employed.
Mice are apportioned at 4 per group and are inoculated intraperitoneally with 3×10^6 allogeneic P815 tumor cells and the resulting cytotoxic thymus-derived lymphocyte (CTL) activity is assessed 10 days later. Mice are treated by the intraperitoneal route with 25 microliters of test compound dissolved in dimethylsulfoxide or with dimethylsulfoxide only (vehicle control). […]
Ten days after immunization of mice with P815 cells, single spleen cell suspensions are prepared by passage of spleens through a steel mesh into BSS and are subsequently washed twice with BSS. […] Cytotoxic T lymphocyte activity is determined individually on spleen cells from each animal in each group and the results are expressed as the mean CTL activity (as percent specific Cr release) of each group ± the standard deviation.

[3] = system: renal patients with secondary hyperparathyroidism; test: Clinical trial of 24-OH-D2 for secondary hyperparathyroidism in end stage renal disease; format: in vivo, human
Description: Thirty renal patients are enrolled in a clinical trial to study secondary hyperparathyroidism. The patients show baseline iPTH levels greater than 1000 pg/mL. An initial dose of 24-OH-D2 (50 μg 3 times/week) is increased (maximum, 100 μg 3 times/ week) or decreased as necessary to attain and maintain iPTH in the range of 150–300 pg/mL. After 11–12 weeks of treatment, the iPTH levels of the patients decrease to below 1000 pg/mL, and in many cases to below 500 pg/mL.

[4] = system: patients with advanced androgen-independent prostate cancer; test: Open-label two-phase study of oral 24-(OH)-D2 in prostate cancer; format: in vivo; settings: for progression of metastatic disease (CAT scans, X-rays and bone scans): second phase, after one and two years
From the text: Patients with advanced androgen-independent prostate cancer participate in an open-label study of 24-(OH)-D2. […] On admission to the study, patients begin a course of therapy with oral 24-(OH)-D2 lasting 26 weeks, while discontinuing any previous use of calcium supplements, vitamin D supplements, and vitamin D hormone replacement therapies. During treatment, the patients are monitored at regular intervals for: (1) hypercalcemia, hyperphosphatemia, hypercalciuria, hyperphosphaturia and other toxicity; (2) evidence of changes in the progression of metastatic disease; and (3) compliance with the prescribed test drug dosage.
The study is conducted in two phases. During the first phase, the maximal tolerated dosage (MTD) of daily oral 24-(OH)D2 is determined by administering progressively higher dosages to successive groups of patients. All doses are administered in the morning before breakfast. The first group of patients is treated with 25.0 μg of 24-(OH)D2. Subsequent groups of patients are treated with 50.0, 75.0 and 100.0 μg/day. Dosing is continued uninterrupted for the duration of the study unless serum calcium exceeds 11.6 mg/dL, or other toxicity of grade 3 or 4 is observed, in which case dosing is held in abeyance until resolution of the observed toxic effect(s) and then resumed at a level which has been decreased by 10.0 μg.
During the second phase, patients are treated with 24-(OH)D2 for 24 months at 0.5 and 1.0 times the MTD.

[5] = In vivo generation of 1α,24-(OH)2-D2 in vitamin D-deficient rats (plasma metabolites by HPLC); settings: vitamin D-deficient rats; oral or intraperitoneal supplementation; HPLC
Description: 24-OH-D2 was administered (either oral or intraperitoneal supplementation) to vitamin D-deficient rats. Lipid extracts of the plasma were prepared and the metabolites purified by the method of Horst et al. (Horst, R. L., Koszewski, N. J. and Reinhardt, T. A., Biochem., 29:578–82 (1990) and incorporated herein by reference) described below for synthesizing standard biological 1α,24-(OH)2D2.

C=C1CC[C@H](O)C/C1=C/C=C1\CCC[C@]2(C)[C@@H]([C@H](C)/C=C/C(C)(O)C(C)C)CC[C@@H]12 (some centres unmarked) [24-OH-D2, 24-hydroxyvitamin D2]
degree of erythema, scaling, and thickness versus control patients [1]: significantly reduces | CTL activity versus vehicle control [2]: statistically significant reduction | iPTH levels of the patients ([3]; after 11–12 weeks, baseline greater than 1000 pg/mL, 50 μg 3 times/week, titrated): below 1000 pg/mL | iPTH levels, in many cases ([3]; after 11–12 weeks, in many cases): below 500 pg/mL | episodes of hypercalcemia ([3]; during the study): few episodes of hypercalcemia | MTD level relative to what can be achieved with 1α,25-(OH)2D3 ([4]; first phase): 10- to 50 fold | circulating levels of 1α,25-(OH)2D3 ([4]; first phase): suppressed, often to undetectable levels | levels of circulating 24-(OH)D2 versus dosage administered ([4]; in vivo): increase proportionately with the dosage administered | maximum levels of circulating 24-(OH)D2 ([4]; in vivo): above 100 pg/mL | serum and urine calcium ([4]; in vivo): elevated in a dose responsive manner | progression of metastatic disease (CAT scans, X-rays and bone scans) ([4]; higher dosage (1.0 times the MTD)): stable disease and partial or complete remission in many patients | progression of metastatic disease (CAT scans, X-rays and bone scans) ([4]; lower dosage (0.5 times the MTD)): stable disease or partial remission in many patients | bone pain associated with metastatic disease ([4]; treated with the MTD for at least six months): significantly diminished | metabolite isolated from plasma lipid extracts versus standard 1α,24-(OH)2D2 [5]: co-migrated on HPLC with the standard 1α,24-(OH)2D2
